In article PMC7491124, “Studies on sugar transporter CRT1 reveal new characteristics that are critical for cellulase induction in Trichoderma reesei” (Biotechnology for Biofuels, 2020):

What was measured:
Assay type in all cases: cell-based
[1] = molecular target: T1, CRT1-RUT-C30 (Trichoderma reesei, UniProt G0RGH7); test: inhibition of labelled cellobiose uptake in yeast; conditions: 5 mM labelled cellobiose, 25 mM inhibitor; pH 6.5, 28 °C
T1 construct: gene TRIREDRAFT_3405; full-length RUT-C30 version with longer N-terminus; codon-optimized synthetic gene, PGK1 promoter, centromeric plasmid in S. cerevisiae co-expressing N. crassa GH1-1

[2] = molecular target: T2, CDT-1 (Neurospora crassa, UniProt Q7SCU1); test: inhibition of labelled cellobiose uptake in yeast; conditions: 5 mM labelled cellobiose, 25 mM inhibitor; pH 6.5, 28 °C
T2 construct: full-length; PGK1 promoter, centromeric plasmid in S. cerevisiae co-expressing N. crassa GH1-1
T2 sequence (Q7SCU1 1-579): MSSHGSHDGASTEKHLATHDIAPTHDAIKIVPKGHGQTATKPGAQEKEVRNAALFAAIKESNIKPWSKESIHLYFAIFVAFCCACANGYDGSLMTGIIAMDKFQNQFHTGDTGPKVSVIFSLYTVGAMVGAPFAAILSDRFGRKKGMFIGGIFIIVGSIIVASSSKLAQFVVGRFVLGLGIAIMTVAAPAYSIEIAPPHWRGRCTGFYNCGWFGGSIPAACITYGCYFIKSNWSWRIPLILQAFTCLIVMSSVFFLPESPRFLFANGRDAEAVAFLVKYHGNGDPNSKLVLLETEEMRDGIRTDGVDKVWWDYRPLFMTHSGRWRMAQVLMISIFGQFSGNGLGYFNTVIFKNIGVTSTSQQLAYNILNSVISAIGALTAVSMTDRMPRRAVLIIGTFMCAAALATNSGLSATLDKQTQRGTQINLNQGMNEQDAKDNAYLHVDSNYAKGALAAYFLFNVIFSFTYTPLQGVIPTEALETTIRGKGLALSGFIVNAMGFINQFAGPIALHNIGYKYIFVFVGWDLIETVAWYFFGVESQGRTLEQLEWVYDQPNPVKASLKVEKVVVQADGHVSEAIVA

[3] = molecular target: T3, CDT-2 (Neurospora crassa, UniProt Q7SD12); test: radiolabelled lactose uptake in yeast, […] min; conditions: labelled compound; 5 mM lactose, pH 6.5, 28 °C
T3 construct: full-length; PGK1 promoter, centromeric plasmid in S. cerevisiae co-expressing N. crassa GH1-1
T3 sequence (Q7SD12 1-525): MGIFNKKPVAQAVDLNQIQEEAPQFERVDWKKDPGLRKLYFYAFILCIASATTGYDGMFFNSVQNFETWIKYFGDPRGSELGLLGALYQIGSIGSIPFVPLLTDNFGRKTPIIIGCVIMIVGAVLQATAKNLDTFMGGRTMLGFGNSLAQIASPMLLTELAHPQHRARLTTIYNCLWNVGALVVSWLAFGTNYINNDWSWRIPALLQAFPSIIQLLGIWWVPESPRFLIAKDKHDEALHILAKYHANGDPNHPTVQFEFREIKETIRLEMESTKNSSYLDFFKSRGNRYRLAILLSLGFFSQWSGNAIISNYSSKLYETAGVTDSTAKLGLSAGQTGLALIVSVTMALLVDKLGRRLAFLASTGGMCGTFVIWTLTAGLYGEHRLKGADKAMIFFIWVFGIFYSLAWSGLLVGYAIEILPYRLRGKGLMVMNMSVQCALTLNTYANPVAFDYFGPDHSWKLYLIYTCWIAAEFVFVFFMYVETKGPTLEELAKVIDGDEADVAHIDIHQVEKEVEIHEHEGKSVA

[4] = molecular target: T1, CRT1-RUT-C30; test: radiolabelled sugar uptake in yeast; conditions: labelled compound; zero-trans uptake, 100 mM potassium phosphate pH 6.5, 28 °C

T1 sequence (G0RGH7 entry or part of it): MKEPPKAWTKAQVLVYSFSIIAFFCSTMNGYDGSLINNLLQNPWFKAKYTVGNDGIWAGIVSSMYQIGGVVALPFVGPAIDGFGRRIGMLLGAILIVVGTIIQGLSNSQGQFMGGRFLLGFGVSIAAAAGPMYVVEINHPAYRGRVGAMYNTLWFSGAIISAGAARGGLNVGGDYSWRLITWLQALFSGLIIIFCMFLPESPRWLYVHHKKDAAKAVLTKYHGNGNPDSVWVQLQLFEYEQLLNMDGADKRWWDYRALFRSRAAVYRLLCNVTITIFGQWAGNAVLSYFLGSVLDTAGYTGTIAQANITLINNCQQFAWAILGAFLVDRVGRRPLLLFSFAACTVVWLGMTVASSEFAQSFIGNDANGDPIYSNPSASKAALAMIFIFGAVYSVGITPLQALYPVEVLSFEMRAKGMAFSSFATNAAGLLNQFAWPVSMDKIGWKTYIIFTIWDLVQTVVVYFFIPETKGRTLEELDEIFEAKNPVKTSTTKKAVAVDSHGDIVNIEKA

Km [4]	SMILES	% inhibition at 25 mM [1]	% inhibition at 25 mM [2]	radiolabelled lactose uptake in yeast, 20 min [3]
	OC[C@H]1O[C@@H](O[C@H]2[C@H](O)[C@@H](O)[C@H](O[C@H]3[C@H](O)[C@@H](O)C(O)O[C@@H]3CO)O[C@@H]2CO)[C@H](O)[C@@H](O)[C@@H]1O (some centres unmarked) [cellotriose]	it was inhibited by cellobiose and to some extent by lactose and cellotriose	it was inhibited by cellobiose and to some extent by lactose and cellotriose	
62.9 ± 27.4 µM	OC[C@H]1O[C@@H](O[C@H]2[C@H](O)[C@@H](O)C(O)O[C@@H]2CO)[C@H](O)[C@@H](O)[C@H]1O (some centres unmarked) [lactose]			higher lactose uptake was seen for the strains which expressed CDT-1, CDT-2 or CRT1-RUT-C30
3.1 ± 0.7 µM	OC[C@H]1O[C@@H](O[C@H]2[C@H](O)[C@@H](O)C(O)O[C@@H]2CO)[C@H](O)[C@@H](O)[C@@H]1O (some centres unmarked) [cellobiose]			
